Results reported in ChEMBL document CHEMBL3045238, “Structure-Activity Studies of Insecticidal 2-Methoxy-1, 3, 2-oxazaphospholidine 2-Sulfides against Musca domestica and Tribolium castaneum” (J Pestic Sci, 1990).

What was measured:
[1] = system: Tribolium castaneum; assay: Insecticidal activity against fourth-instar Tribolium castaneum (red flour beetle) assessed as inhibition of larval weight gain at 30 degC measured after 2 days by feeding method; assay type: functional
[2] = system: Musca domestica; assay: Insecticidal activity against female Musca domestica (house fly) assessed as mortality compound topically applied to the abdomen measured per fly after 24 hr; assay type: functional

Structure (SMILES)	I50 [1] [ppm]	LD50 [2] [µg]	pLD50 [2]
COP1(=S)NCC2(CCCC(C)C2)O1 (configuration not stated)	>100	>1	–
COP1(=S)NCC(c2ccc(C)cc2C)O1 (configuration not stated)	33	0.73	–
COP1(=S)NCC2(CC3CCC2(C)C3(C)C)O1 (configuration not stated)	>100	>1	–
COP1(=S)NCC2(CCCc3ccccc32)O1 (configuration not stated)	>100	>1	–
COP1(=S)NCC(c2ccc(Cl)cc2)O1 (configuration not stated)	>100	0.16	3.22
COP1(=S)NCC(c2cccc(Oc3ccccc3)c2)O1 (configuration not stated)	>100	>1	–
COP1(=S)NCC(c2ccc3ccccc3c2)O1 (configuration not stated)	11	0.64	–
COP1(=S)NCC(c2ccc(Cl)cc2Cl)O1 (configuration not stated)	>100	0.8	–
COP1(=S)NCC2(CCCCC2)O1 (configuration not stated)	>100	>1	–
COP1(=S)NCC(c2cc(Cl)cc(Cl)c2)O1 (configuration not stated)	>100	>1	–
COc1cc(OC)cc(C2CNP(=S)(OC)O2)c1 (configuration not stated)	>100	1.12	–
COP1(=S)NCC(c2cccc(F)c2F)O1 (configuration not stated)	>100	>1	–
COP1(=S)NCC(c2cc(C)ccc2C)O1 (configuration not stated)	84	0.23	–
COP1(=S)NCC(c2ccc3c(c2)OCO3)O1 (configuration not stated)	>100	>1	–
COP1(=S)NCC(C)(c2cccc(Br)c2)O1 (configuration not stated)	>100	0.29	–
COP1(=S)NCC(c2ccc(C(F)(F)F)cc2)O1 (configuration not stated)	>100	>1	–
COP1(=S)NCC(c2ccc(Cl)c(Cl)c2)O1 (configuration not stated)	>100	>1	–
COP1(=S)NCC(c2c(F)cccc2F)O1 (configuration not stated)	>100	0.82	–
COP1(=S)NCC(c2cccc(Cl)c2)O1 (configuration not stated)	>100	0.24	3.04
COP1(=S)NCC(c2ccc(F)cc2F)O1 (configuration not stated)	>100	0.35	–
COc1ccc(C2CNP(=S)(OC)O2)cc1OC (configuration not stated)	>100	>1	–
COP1(=S)NCC(c2cccc(Cl)c2Cl)O1 (configuration not stated)	>100	>1	–

Structure (SMILES)	I50 [1] [ppm]	LD50 [2] [µg]	pLD50 [2]
CCOC(OCC)C1(c2ccccc2)CNP(=S)(OC)O1 (configuration not stated)	>100	>1	–
COP1(=S)NCC(c2ccccc2C)O1 (configuration not stated)	35	0.27	2.95
COP1(=S)NCC(C)(c2ccccc2F)O1 (configuration not stated)	>100	1.26	–
COP1(=S)NCC(c2ccccc2)(C(C)C)O1 (configuration not stated)	>100	>1	–
COP1(=S)NCC(c2ccc(F)cc2)O1 (configuration not stated)	>100	0.083	3.47
COP1(=S)NCC(c2c(Cl)cccc2Cl)O1 (configuration not stated)	49	>1	–
COc1cccc(C2CNP(=S)(OC)O2)c1OC (configuration not stated)	6.6	0.53	–
COP1(=S)NCC(c2cc(F)cc(F)c2)O1 (configuration not stated)	>100	>1	–
COP1(=S)NCC(C)(c2ccccc2)O1 (configuration not stated)	>100	0.88	–
CCc1ccc(C2CNP(=S)(OC)O2)cc1 (configuration not stated)	3.7	0.22	3.07
COP1(=S)NCC(c2ccccc2Cl)O1 (configuration not stated)	72	0.53	2.7
COP(=S)(OC)Oc1ccc([N+](=O)[O-])c(C)c1 [FENITROTHION]	4.7	0.051	–
COc1cccc(C2CNP(=S)(OC)O2)c1 (configuration not stated)	46	0.18	3.16
COP1(=S)NCC(c2cccc3ccccc23)O1 (configuration not stated)	25	0.68	–
COc1ccccc1C1CNP(=S)(OC)O1 (configuration not stated)	41	>1	–
COP1(=S)NCC(c2cc(F)ccc2F)O1 (configuration not stated)	>100	0.32	–
COP1(=S)NCC(C2CCCCC2)O1 (configuration not stated)	>100	>1	–
COP1(=S)NCC2(O1)C1CCC(C1)C2(C)C (configuration not stated)	>100	>1	–
COP1(=S)NCC(C)(c2cccc3ccccc23)O1 (configuration not stated)	>100	>1	–
COP1(=S)NCC(c2ccccc2)(c2ccccc2)O1 (configuration not stated)	>100	>1	–
COP1(=S)NCC(CCc2ccccc2)O1 (configuration not stated)	>100	>1	–
COP1(=S)NCC(C)(c2cccc(C)c2)O1 (configuration not stated)	>100	>1	–

Structure (SMILES)	I50 [1] [ppm]	LD50 [2] [µg]	pLD50 [2]
COP1(=S)NCC(c2cccc(F)c2)O1 (configuration not stated)	>100	0.16	3.19
COP1(=S)NCC(c2ccccc2Br)O1 (configuration not stated)	49	0.5	2.79
COP1(=S)NCC(c2cccc(Br)c2)O1 (configuration not stated)	59	0.2	3.19
COP1(=S)NCC(c2cccc([N+](=O)[O-])c2)O1 (configuration not stated)	>100	>1	–
COP1(=S)NCC(Cc2ccccc2)O1 (configuration not stated)	>100	>1	–
COc1cccc(C2(C)CNP(=S)(OC)O2)c1 (configuration not stated)	>100	>1	–
COc1ccc(OC)c(C2CNP(=S)(OC)O2)c1 (configuration not stated)	22	>1	–
COP1(=S)NCC(c2ccc(-c3ccccc3)cc2)O1 (configuration not stated)	62	>1	–
COP1(=S)NCC(c2ccc(C)cc2)O1 (configuration not stated)	5.5	0.084	3.46
COP1(=S)NCC2(Cc3ccccc3C2)O1 (configuration not stated)	>100	>1	–
COc1cc(C2CNP(=S)(OC)O2)cc(OC)c1OC (configuration not stated)	>100	>1	–
COP1(=S)NCC(c2cccc(C)c2)O1 (configuration not stated)	15	>1	–
COP1(=S)NCC(c2ccc(C(C)C)cc2)O1 (configuration not stated)	5.2	0.42	2.81
COP1(=S)NCC(c2ccc(F)c(F)c2)O1 (configuration not stated)	>100	0.59	–
COP1(=S)NCC(c2cccc(C(F)(F)F)c2)O1 (configuration not stated)	>100	>1	–
COP1(=S)NCC(c2ccccc2F)O1 (configuration not stated)	41	0.14	3.25
COP1(=S)NCC(C2CC=CCC2)O1 (configuration not stated)	>100	>1	–
COP1(=S)NCC(c2ccccc2C(F)(F)F)O1 (configuration not stated)	>100	>1	–
COP1(=S)NCC(C(C)c2ccccc2)O1 (configuration not stated)	>100	>1	–
COP1(=S)NCC(c2ccc([N+](=O)[O-])cc2)O1 (configuration not stated)	>100	>1	–
COP1(=S)NCC(c2ccc(Br)cc2)O1 (configuration not stated)	>100	0.21	3.13
COP1(=S)NCC(c2ccccc2)O1 (configuration not stated)	43	0.035	3.82
